In data set [1] the test system is Leukemia K562. Put plainly: Tumor cell growth / proliferation. To be noted: K562 cell line.
Data set [2] deals with premalignant 10T1/2 cells. The experiment in a line: cells. To be noted: for Differentiation at 1 mM: sodium salts; for DC50: Mus musculus, Adipocyte, read-out: DC50, concentration of compound causing 50% differentiation; for adipocyte conversion: glutamine antagonists. The protocol: C. Quantitation of adipocytosis. Lipids stained with Oil-Red O were extracted with butanol, and the optical density at 510 nm determined.
Lower: Quantitation of adipocytosis. Cells were fixed with 37% formaldehyde and stained with Oil-Red O. The stained intracellular lipid was extracted with butanol, and the optical density was determined using a Titertek Multiskan MC, manufactured by Flow Laboratories, at a wavelength 510 nm.

The test system of data set [3] is 10T1/2 cells. Put plainly: Neoplastic foci formation in culture. From the text:
[…] The cells were then subcultured in the absence of the nucleoside analog for an additional seven weeks. […] For the tumorigenicity assay, 4-5 week-old female athymic nude mice were inoculated s.c. with 1 x 10^6 cells and observed for tumor growth at the site of injection.

For data set [4], the system named is C3H 10T1/2 Cells. The experiment in a line: Tumorigenicity of treated cells in athymic mice. Conditions: time 8 weeks. As to the method: Premalignant cells (3-4 x 10^5) were plated in 75 cm^2 dishes and 5-AzadC 0.1 µM was added to the growth medium at 20 and 48 hrs after plating. The cells were then subcultured in the absence of the nucleoside analog for an additional seven weeks. […] For the tumorigenicity assay, 4-5 week-old female athymic nude mice were inoculated s.c. with 1 x 10^6 cells and observed for tumor growth at the site of injection.

Data set [5] has as its system 4C8a10 cells (revertants of Haras-transformed NIH3T3 fibroblasts). The experiment in a line: Tumor formation of cells pretreated in culture and injected s.c. into athymic nude mice. In kind it is in vivo. To be noted: cells pretreated with 5-AzadC 0.1 µM, after 3 weeks. The text has this: One-two weeks later the cells were transplanted subcutaneously into athymic mice.
(§1) The experimental model involved nonmalignant 4C8a10 cells (revertants of Haras-transformed NIH3T3 fibroblasts). […]
Frederick Cancer Research Facility).

Data set [6] deals with 4C8a10 cells. Put plainly: Malignant phenotype in culture / growth on matrigel. In kind it is cell-based. The protocol:
as §1
^b Cells were plated on top of matrigel (reconstituted basement membrane) and observed for malignant growth pattern, i.e., active replication, development of characteristic processes, and invasion.

The subject of data set [7] is HL-60. The experiment in a line: Granulocyte differentiation (NBT reduction, morphology) and viability by trypan blue exclusion. To be noted: Homo sapiens, HL-60, read-out: Cell viability. The protocol: The number of NBT positive cells was determined after 4 [solid bars] or 7 days [hatched bar] of treatment. […] Glutamine Starvation (Gln, < 0.06 mM) was as described (18).
The ability of cells to reduce nitroblue tetrazolium (NBT) is indicative of oxidase activity which is characteristic of the more mature forms of human bone marrow granulocytes. NBT reduction thus serves as an indicator of granulocyte differentiation. […] Glutamine starvation (Gln, < 0.06 mM) was as described. […] DON, ACV and HPA are glutamine antagonists.

The subject of data set [8] is Erythroleukemia K562 cells. Put plainly: Induction of hemoglobin synthesis (benzidine staining, protein quantitation). To be noted: HU 100 µM, seven days.
Data set [9] deals with Prostate Adenocarcinoma PC3. Put plainly: Tumor cell growth / proliferation. The class given is cell-based. To be noted: Homo sapiens, PC-3. As to the method: Studies of depth were performed with two androgenindependent human prostate adenocarcinoma cell lines, PC3 and DU145, established from bone and brain metastases, respectively.
The test system of data set [10] is Malignant Melanoma A375. The experiment in a line: Tumor cell growth / proliferation.

As to `O=C(O)Cc1cc(O)cc(O)c1`, the toxicity result in data set [1] is given as “highly toxic”.

Turning to `O=C(O)Cc1cccc2ccccc12` [1-naphthylacetate], in data set [2], the “Differentiation at 1 mM” value was greater than 95% and the DC50 was less than 100 µM.

For `O=C(O)Cc1ccc(O)cc1O` [2,4-dihydroxyphenylacetate], the toxicity entry in data set [1] was “highly toxic”.

`O=C(O)Cc1c(Cl)cccc1Cl` [2,6-dichlorophenylacetate]: in [2], the “Differentiation at 1 mM” value turned out to be 75% and the DC50 worked out at 500 µM.

In the case of `O=C(O)Cc1cccc(Cl)c1` [3-chlorophenylacetate], in [2], the “Differentiation at 1 mM” value amounted to 80% and the DC50 was determined as 500 µM.

For the molecule `O=C(O)Cc1ccc(Cl)cc1` [4-chlorophenylacetate], in data set [2], the “Differentiation at 1 mM” value is 50% and the DC50 amounted to 1000 µM.

With `O=C(O)Cc1ccc(F)cc1` [4-fluorophenylaceatae], in data set [2], the “Differentiation at 1 mM” value stood at 65% and the DC50 is 700 µM.

`Nc1ncn([C@H]2C[C@H](O)[C@@H](CO)O2)c(=O)n1` [5-AzadC, 5-aza-2'-deoxycytidine, reference compound]: the “frequency of foci of neoplastically transformed cells” value in [3] is “about 7x10^-4”. Further, in data set [4] (5-AzadC 0.1 µM at 20 and 48 hrs after plating, 1 x 10^6 cells s.c.), the “Tumors Incidence” value is on record as 8/8. In addition, the “Tumors Diameter” value in data set [4] (5-AzadC 0.1 µM) is reported as 5.5 ± 2.5 mm ± S.D. Also, in data set [5] (5x10^5 cells per site s.c.), the “Tumor Formation Incidence” value is recorded as 8/8. In addition, the “Tumor Formation Size, mean (range)” value in data set [5] is listed as 11.5 (4-19) mm. Moreover, the Growth on matrigel entry in data set [6] (5-AzadC 0.1 µM) is recorded as “+”. Besides, the “time until malignant conversion evident” value in data set [6] (transient treatment of premalignant cells) is listed as no more than 2 days.

The viability is a read-out of living cells in per cent, often relative to untreated cells. As to `N[C@H](C(=O)O)[C@@H]1CC(Cl)=NO1` [ACV, acivicin], in data set [7], the viability at 1 µg/mL turned out to be 63% and the viability at 3 µg/mL amounted to 63%. Besides, the adipocyte conversion entry in data set [2] is “neither glutamine starvation nor by treatment with glutamine antagonists such as DON and ACV resulted in adipocyte conversion”.

`[N-]=[N+]=CC(=O)CC[C@H](N)C(=O)O` [DON, 6-diazo-5-oxo-L-norleucine]: in data set [7], the viability at 25 µg/mL was 75% and the viability at 30 µg/mL was determined as 75%. Besides, in data set [2], the adipocyte conversion entry is “neither glutamine starvation nor by treatment with glutamine antagonists such as DON and ACV resulted in adipocyte conversion”.

With `NC(=O)NO` [HU, hydroxyurea, reference compound], in [8], the “Benzidine Positive Cells” value amounted to 17.2%.

On to `Cc1ccc(C(=O)Nc2ccc(S(=O)(=O)O)c3cc(S(=O)(=O)O)cc(S(=O)(=O)O)c23)cc1NC(=O)c1cccc(NC(=O)Nc2cccc(C(=O)Nc3cc(C(=O)Nc4ccc(S(=O)(=O)O)c5cc(S(=O)(=O)O)cc(S(=O)(=O)O)c45)ccc3C)c2)c1` [Suramin, suramin], for which the activity at 75 µg/mL in [9] (Suramin 75 µg/ml) amounted to 58.5%. This molecule also showed an activity at 150 µg/mL in [9] (Suramin 150 µg/ml) of 46.5%. The same molecule came in with an activity at 300 µg/mL in [9] (Suramin 300 µg/ml) of 31%. Further, the Growth in data set [10] (Suramin 38 µg/ml) is 78.3 % of control; in data set [10] (Suramin 75 µg/ml) it was 56.8 % of control; in [10] (Suramin 150 µg/ml), 38.6 % of control; in [10] (Suramin 300 µg/ml), 26.6 % of control. The Viability is listed as greater than 95% in [10] (Suramin 38 µg/ml), greater than 95% in data set [10] (Suramin 75 µg/ml), 92% in data set [10] (Suramin 150 µg/ml) and 82% in data set [10] (Suramin 300 µg/ml).

The record behind these values is patent publication EP0567613B1, “COMPOSITIONS FOR THERAPY AND PREVENTION OF CANCER” (The Government of the United States of America, as …, priority 1991, dated 1993).
